According to US20170273922A1, “UREA AND BIS-UREA BASED COMPOUNDS AND ANALOGUES THEREOF USEFUL IN THE TREATMENT OF ANDROGEN RECEPTOR MEDIATED DISEASES OR DISORDERS” (THE ROYAL INSTITUTION FOR THE ADVACEMENT OF LEARNING/MCGILL …, priority 2014, published 2017):

How the values were obtained:
[1] = MTT assay (cytotoxicity), LNCaP cells; format: cell-based; conditions: human, LNCaP cells
Procedure: (§1) MTT assays: LNCaP, 22Rv1, Du145, H1975, A549, MB231 and MCF-7 cells are maintained in RPMI 1640 supplemented with 10% FBS. Cells were seeded at a density of 6-7×10^3 cells per well in 96-well plates. After overnight incubation, cells in fresh RPMI 1640 supplemented with 10% FBS were exposed to DMSO vehicle control or test compounds at designated concentrations for 72 h. Viable cells were evaluated by MTT assays. Experiments were performed in triplicate and repeated at least twice.

[2] = MTT assay (cytotoxicity), 22Rv1 cells; format: cell-based; conditions: human, 22Rv1 cells, 72 h treatment, Table 6.1
Procedure: as §1

O=C(N/C=C/c1cccc(C(F)(F)F)c1)NCc1cccc(C(F)(F)F)c1 [Compound 460]
IC50 at 72 h ([1]; 72 h, Table 2.4): 7.9 µM

O=C(Nc1cccc(C(F)(F)F)c1)Nc1ccc(NC(=O)c2c(F)cccc2F)c(C(F)(F)F)c1 [Compound 900]
IC50 at 72 h ([1]; 72 h treatment, Table 6.1): > 10 µM | IC50 at 72 h [2]: 10.4 µM

O=C(Nc1cccc(F)c1)Nc1cc(NC(=O)Nc2cccc(F)c2)cc(C(F)(F)F)c1 [Compound 964]
IC50 at 72 h ([1]; 72 h treatment, Table 6.1): 2.4 µM | IC50 at 72 h [2]: 1.8 µM

O=C(Nc1ccc(F)c(NC(=O)c2ccc(F)cc2F)c1)Nc1ccccc1C(F)(F)F [Compound 960]
IC50 at 72 h [2]: 5.7 µM

O=C(Nc1ccc(C(F)(F)F)cc1)Nc1ccc(NC(=O)c2ccccc2F)c(C(F)(F)F)c1 [Compound 897]
IC50 at 72 h ([1]; 72 h treatment, Table 6.1): 1.9 µM | IC50 at 72 h [2]: 7 µM

O=C(Nc1cccc(C(F)F)c1)Nc1ccc(NC(=O)c2cc(C(F)(F)F)ccc2F)c(C(F)(F)F)c1 [Compound 941]
IC50 at 72 h ([1]; 72 h treatment, Table 6.1): 5.4 µM | IC50 at 72 h [2]: 3.6 µM

O=C(Nc1cc(N2CCOCC2)cc(C(F)(F)F)c1)Nc1ccc(NC(=O)c2ccccc2F)c(C(F)(F)F)c1 [Compound 861]
IC50 at 72 h ([1]; 72 h treatment, Table 6.1): 9.7 µM

O=C(Nc1cccc(C(F)(F)F)c1)Nc1ccc(NC(=O)Nc2ccc(F)cc2)c(C(F)(F)F)c1 [Compound 898]
IC50 at 72 h ([1]; 72 h treatment, Table 6.1): 1.4 µM | IC50 at 72 h [2]: 5.1 µM

O=C(Nc1cccc(C(F)(F)F)c1)Nc1ccccc1NC(=O)Nc1cccc(C(F)(F)F)c1 [Compound 967]
IC50 at 72 h ([1]; 72 h treatment, Table 6.1): 2.7 µM | IC50 at 72 h [2]: 3.1 µM

O=C(Nc1ccc(Br)cc1)Nc1ccc(F)c(NC(=O)c2cc(C(F)(F)F)ccc2F)c1 [Compound 963]
IC50 at 72 h ([1]; 72 h treatment, Table 6.1): 2.4 µM | IC50 at 72 h [2]: 4.7 µM

O=C(Nc1cccc(C(F)(F)F)c1)Nc1ccc(F)c(NC(=O)c2cc(I)ccc2F)c1 [Compound 951]
IC50 at 72 h ([1]; 72 h treatment, Table 6.1): 4 µM | IC50 at 72 h [2]: 9.8 µM

O=C(Nc1cccc(C(F)(F)F)c1)Nc1ccc(F)c(NC(=O)c2ccc(F)cc2)c1 [Compound 947]
IC50 at 72 h ([1]; 72 h treatment, Table 6.1): 12.7 µM | IC50 at 72 h [2]: 15.9 µM

O=C(Nc1cccc(C(F)(F)F)c1)Nc1ccc(F)c(NC(=O)c2c(F)cccc2F)c1 [Compound 913]
IC50 at 72 h ([1]; 72 h treatment, Table 6.1): 12.3 µM | IC50 at 72 h [2]: 14.2 µM

O=C(Nc1cccc(C(F)(F)F)c1)Nc1ccc(NC(=O)c2cccnc2F)c(C(F)(F)F)c1 [Compound 911]
IC50 at 72 h ([1]; 72 h treatment, Table 6.1): 13.8 µM | IC50 at 72 h [2]: 10 µM

O=C(Nc1cccc(C(F)(F)F)c1)Nc1ccc(F)c(NC(=O)c2cc(C(F)(F)F)ccc2F)c1 [Compound 944]
IC50 at 72 h ([1]; 72 h treatment, Table 6.1): 5.5 µM | IC50 at 72 h [2]: 4.5 µM

O=C(Nc1cccc(C(F)(F)F)c1)Nc1ccc(NC(=O)c2cc(Cl)ccc2F)c(C(F)(F)F)c1 [Compound 907]
IC50 at 72 h ([1]; 72 h treatment, Table 6.1): 4.2 µM | IC50 at 72 h [2]: 4.2 µM

O=C(Nc1cccc(C(F)F)c1)Nc1ccc(NC(=O)c2ccc(F)cc2F)c(C(F)(F)F)c1 [Compound 945]
IC50 at 72 h ([1]; 72 h treatment, Table 6.1): 7.3 µM | IC50 at 72 h [2]: 7.1 µM

O=C(Nc1cccc(C(F)(F)F)c1)Nc1ccc(NC(=O)c2cc(F)ccc2F)c(C(F)(F)F)c1 [Compound 901]
IC50 at 72 h ([1]; 72 h treatment, Table 6.1): 6.6 µM | IC50 at 72 h [2]: 4.7 µM

O=C(Nc1cccc(C(F)(F)F)c1)Nc1ccc(NC(=O)c2cc(C(F)(F)F)ccc2F)c(C(F)(F)F)c1 [Compound 903]
IC50 at 72 h ([1]; 72 h treatment, Table 6.1): 6.8 µM | IC50 at 72 h [2]: 5 µM

N#Cc1ccc(NC(=O)NCC(=O)c2ccc(F)cc2)cc1C(F)(F)F [Compound 982]
IC50 at 72 h ([1]; 72 h, Table 2.4): 4.6 µM

O=C(Nc1cccc(C(F)(F)F)c1)Nc1ccc(NC(=O)Nc2cccc(F)c2)c(C(F)(F)F)c1 [Compound 905]
IC50 at 72 h ([1]; 72 h treatment, Table 6.1): 5.5 µM | IC50 at 72 h [2]: 11.4 µM

O=C(Nc1cccc(C(F)(F)F)c1)Nc1ccc(F)cc1NC(=O)c1ccc(F)cc1F [Compound 961]
IC50 at 72 h ([1]; 72 h treatment, Table 6.1): 6.2 µM | IC50 at 72 h [2]: 10.1 µM

O=C(Nc1cccc(C(F)(F)F)c1)Nc1ccc(NC(=O)c2ccc(F)cc2F)c(C(F)(F)F)c1 [Compound 902]
IC50 at 72 h ([1]; 72 h treatment, Table 6.1): 7.4 µM | IC50 at 72 h [2]: 4.5 µM

O=C(N/C=C/c1cccc(OC(F)(F)F)c1)Nc1ccncn1 [Compound 875]
IC50 at 72 h ([1]; 72 h treatment, Table 6.1): 4.6 µM | IC50 at 72 h [2]: 8.8 µM

O=C(Nc1cccc(C(F)F)c1)Nc1ccc(NC(=O)c2cc(F)ccc2F)c(C(F)(F)F)c1 [Compound 930]
IC50 at 72 h ([1]; 72 h treatment, Table 6.1): 8.2 µM | IC50 at 72 h [2]: 5.6 µM

N#Cc1ccc(NC(=O)NCC(=O)c2cccc(C(F)(F)F)c2)cc1C(F)(F)F [Compound 937]
IC50 at 72 h ([1]; 72 h, Table 2.4): 7.3 µM

O=C(Nc1cccc(C(F)(F)F)c1)Nc1ccc(F)c(NC(=O)Nc2ccccc2F)c1 [Compound 950]
IC50 at 72 h ([1]; 72 h treatment, Table 6.1): 3.8 µM | IC50 at 72 h [2]: 7.8 µM

O=C(N/C=C/c1c[nH]cn1)Nc1ccc([N+](=O)[O-])c(C(F)(F)F)c1 [Compound 454]
IC50 at 72 h ([1]; 72 h, Table 2.4): > 10 µM

O=C(Nc1cccc(C(F)(F)F)c1)Nc1cc(NC(=O)c2ccccc2F)cc(C(F)(F)F)c1 [Compound 928]
IC50 at 72 h ([1]; 72 h treatment, Table 6.1): 2.4 µM | IC50 at 72 h [2]: 2 µM

O=C(Nc1cccc(C(F)(F)F)c1)Nc1ccc(F)c(NC(=O)c2cccc(F)c2)c1 [Compound 946]
IC50 at 72 h ([1]; 72 h treatment, Table 6.1): 8.4 µM | IC50 at 72 h [2]: 9.5 µM

O=C(Nc1cccc(F)c1)Nc1cc(F)ccc1NC(=O)c1ccc(F)cc1F [Compound 965]
IC50 at 72 h ([1]; 72 h treatment, Table 6.1): 4.3 µM | IC50 at 72 h [2]: 7.7 µM

O=C(Nc1ccc(C(F)(F)F)cc1)Nc1ccc(F)c(NC(=O)c2ccc(F)cc2F)c1 [Compound 956]
IC50 at 72 h ([1]; 72 h treatment, Table 6.1): 3.5 µM | IC50 at 72 h [2]: 9.5 µM

COc1cccc(NC(=O)N/C=C/c2cccs2)c1 [Compound 425]
IC50 at 72 h ([1]; 72 h, Table 2.4): > 20 µM

O=C(N/C=C/c1cccs1)Nc1ccc2c(c1)OCO2 [Compound 426]
IC50 at 72 h ([1]; 72 h, Table 2.4): > 20 µM

O=C(Nc1cc(F)cc(C(F)(F)F)c1)Nc1ccc(NC(=O)c2ccccc2F)c(C(F)(F)F)c1 [Compound 878]
IC50 at 72 h ([1]; 72 h treatment, Table 6.1): 3.4 µM | IC50 at 72 h [2]: 3.2 µM

O=C(Nc1cccc(NC(=O)c2cccc(F)c2)c1)Nc1cccc(C(F)(F)F)c1 [Compound 914]
IC50 at 72 h ([1]; 72 h treatment, Table 6.1): 7.3 µM | IC50 at 72 h [2]: 8.7 µM

O=C(Nc1ccc(F)c(NC(=O)c2cc(C(F)(F)F)ccc2F)c1)Nc1ccccc1C(F)(F)F [Compound 959]
IC50 at 72 h ([1]; 72 h treatment, Table 6.1): 13.5 µM | IC50 at 72 h [2]: 8.7 µM

O=C(Nc1cccc(NC(=O)c2ccc(F)cc2)c1)Nc1cccc(C(F)(F)F)c1 [Compound 915]
IC50 at 72 h ([1]; 72 h treatment, Table 6.1): 9 µM | IC50 at 72 h [2]: 10.6 µM

O=C(Nc1cccc(C(F)(F)F)c1)Nc1cc(NC(=O)Nc2cccc(C(F)(F)F)c2)cc(C(F)(F)F)c1 [Compound 953]
IC50 at 72 h ([1]; 72 h treatment, Table 6.1): 1.4 µM | IC50 at 72 h [2]: 0.9 µM

O=C(Nc1ccc(Br)cc1)Nc1cc(F)ccc1NC(=O)c1ccc(F)cc1F [Compound 962]
IC50 at 72 h ([1]; 72 h treatment, Table 6.1): 5.3 µM | IC50 at 72 h [2]: 4.9 µM

O=C(Nc1cccc(C(F)(F)F)c1)Nc1ccc(F)c(NC(=O)c2cc(F)ccc2F)c1 [Compound 942]
IC50 at 72 h ([1]; 72 h treatment, Table 6.1): 5.7 µM | IC50 at 72 h [2]: 7.1 µM

O=C(Nc1cccc(C(F)(F)F)c1)Nc1ccc(F)c(NC(=O)c2cc(Cl)ccc2F)c1 [Compound 929]
IC50 at 72 h ([1]; 72 h treatment, Table 6.1): 5.5 µM | IC50 at 72 h [2]: 5.7 µM

O=C(Nc1cccc(C(F)(F)F)c1)Nc1cc(C(=O)O)cc(C(F)(F)F)c1 [Compound 949]
IC50 at 72 h ([1]; 72 h treatment, Table 6.1): 2.9 µM | IC50 at 72 h [2]: 32.9 µM

O=C(Nc1cccc(C(F)(F)F)c1)Nc1ccc(NC(=O)c2cc(I)ccc2F)c(C(F)(F)F)c1 [Compound 952]
IC50 at 72 h ([1]; 72 h treatment, Table 6.1): 5.2 µM | IC50 at 72 h [2]: 7.8 µM

O=C(Nc1cccc(C(F)F)c1)Nc1ccc(NC(=O)c2ccccc2F)c(C(F)(F)F)c1 [Compound 912]
IC50 at 72 h ([1]; 72 h treatment, Table 6.1): 11.6 µM | IC50 at 72 h [2]: 16 µM

CN1CCN(c2cc(NC(=O)Nc3ccc(NC(=O)c4ccccc4F)c(C(F)(F)F)c3)cc(C(F)(F)F)c2)CC1 [Compound 862]
IC50 at 72 h ([1]; 72 h treatment, Table 6.1): 3.4 µM

O=C(Nc1ccc(C(F)(F)F)cc1)Nc1cc(NC(=O)Nc2ccc(C(F)(F)F)cc2)cc(C(F)(F)F)c1 [Compound 955]
IC50 at 72 h ([1]; 72 h treatment, Table 6.1): 1.5 µM | IC50 at 72 h [2]: 0.9 µM

O=C(Nc1cccc(NC(=O)Nc2cccc(C(F)(F)F)c2)c1)Nc1cccc(C(F)(F)F)c1 [Compound 966]
IC50 at 72 h [2]: 6.6 µM

O=C(Nc1cccc(C(F)(F)F)c1)Nc1ccc(F)c(NC(=O)c2ccc(F)cc2F)c1 [Compound 943]
IC50 at 72 h ([1]; 72 h treatment, Table 6.1): 6.3 µM | IC50 at 72 h [2]: 13 µM

O=C(Nc1cccc(C(F)(F)F)c1)Nc1ccc(NC(=O)c2ccc(N3CCOCC3)cc2F)c(C(F)(F)F)c1 [Compound 879]
IC50 at 72 h ([1]; 72 h treatment, Table 6.1): 6.3 µM | IC50 at 72 h [2]: 6.8 µM

O=C(Nc1cccc(C(F)(F)F)c1)Nc1ccc(C(=O)Nc2ccc(F)cc2)c(C(F)(F)F)c1 [Compound 904]
IC50 at 72 h ([1]; 72 h treatment, Table 6.1): 4.1 µM | IC50 at 72 h [2]: 3.2 µM

O=C(Nc1ccc(NC(=O)c2ccccc2F)c(C(F)(F)F)c1)Nc1ccccc1C(F)(F)F [Compound 896]
IC50 at 72 h ([1]; 72 h treatment, Table 6.1): 5.2 µM | IC50 at 72 h [2]: 18.9 µM

O=C(Nc1cccc(C(F)(F)F)c1)Nc1ccc(F)c(NC(=O)c2cccc(F)c2F)c1 [Compound 948]
IC50 at 72 h ([1]; 72 h treatment, Table 6.1): 8 µM | IC50 at 72 h [2]: 17.1 µM
